# Values quoted from earlier work, collected in article PMC8687831, “α-Amylase Inhibitory Activity of Catunaregam spinosa (Thunb.) Tirveng.: In Vitro and In Silico Studies” (BioMed Research International, 2021).
# Tested on: streptozotocin-induced diabetic rats
# Design: method as in PMID 21143769
compound,measurement,value
"CC[C@H](CC[C@@H](C)[C@H]1CC[C@H]2[C@@H]3CC=C4C[C@@H](O)CC[C@]4(C)[C@H]3CC[C@]12C)C(C)C [β-Sitosterol, β-sitosterol]",effective to lower the blood glucose level,78-100%
